Values of other authors in patent US20040072765A1, “Cardiovascular and bone treatment using isoflavones” (Novogen Research Pty Ltd., priority 1999, published 2004).

What was measured:
[1] = low doses, rats
[2] = men and women

## O=c1c(-c2ccc(O)cc2)coc2cc(O)cc(O)c12 [Genistein, genistein]
[1]
  cortical and trabecular bone density: increased

## CCOC(=O)C(C)(C)Oc1ccc(Cl)cc1 [clofibrinate]
[2]
  increase in HDL levels: about 10%
